The source of these data is paper PMC3653958, “Identification of Functionally Distinct Na-HCO3 Co-Transporters in Colon” (PLoS ONE, 2013).

The target in this test is T1, NBCe1B/C (electrogenic Na-HCO3 cotransporter) (Rattus norvegicus, UniProt Q9JI66).
T1 construct: gene Slc4a4; native transporter in basolateral membrane vesicles of rat proximal colon (amiloride-insensitive component)
T1 sequence (Q9JI66 1-1079): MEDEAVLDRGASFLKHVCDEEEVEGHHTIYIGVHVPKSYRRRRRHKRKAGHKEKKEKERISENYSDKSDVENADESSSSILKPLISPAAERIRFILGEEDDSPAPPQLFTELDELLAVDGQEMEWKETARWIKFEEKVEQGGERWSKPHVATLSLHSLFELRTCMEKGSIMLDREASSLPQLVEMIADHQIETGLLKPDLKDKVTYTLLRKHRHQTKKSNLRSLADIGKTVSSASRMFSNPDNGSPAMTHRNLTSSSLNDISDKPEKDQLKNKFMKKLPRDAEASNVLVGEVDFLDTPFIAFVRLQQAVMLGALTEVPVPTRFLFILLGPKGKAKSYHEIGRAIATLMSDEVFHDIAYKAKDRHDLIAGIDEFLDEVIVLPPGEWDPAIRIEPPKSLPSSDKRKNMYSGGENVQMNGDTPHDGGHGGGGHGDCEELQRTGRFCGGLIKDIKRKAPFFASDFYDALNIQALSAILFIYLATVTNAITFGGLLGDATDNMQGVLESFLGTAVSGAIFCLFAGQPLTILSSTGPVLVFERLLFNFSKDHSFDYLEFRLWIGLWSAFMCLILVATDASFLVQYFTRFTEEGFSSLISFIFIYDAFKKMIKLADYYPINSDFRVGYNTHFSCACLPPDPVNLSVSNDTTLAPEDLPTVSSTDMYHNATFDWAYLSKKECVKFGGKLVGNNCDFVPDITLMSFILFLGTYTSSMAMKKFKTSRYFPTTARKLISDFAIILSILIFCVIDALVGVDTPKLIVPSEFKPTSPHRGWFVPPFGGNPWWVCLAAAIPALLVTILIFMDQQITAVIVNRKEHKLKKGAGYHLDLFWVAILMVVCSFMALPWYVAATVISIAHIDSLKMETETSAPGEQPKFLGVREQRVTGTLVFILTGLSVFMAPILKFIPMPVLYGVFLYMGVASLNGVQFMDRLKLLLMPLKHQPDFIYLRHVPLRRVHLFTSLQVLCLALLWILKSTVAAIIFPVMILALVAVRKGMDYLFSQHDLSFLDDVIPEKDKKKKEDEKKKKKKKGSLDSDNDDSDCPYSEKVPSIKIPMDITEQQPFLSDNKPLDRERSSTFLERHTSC
Description: inhibition of proton/HCO3 gradient-driven […] uptake in native membrane vesicles. Type of test: biochemical.

By Ki is commonly meant a measure of affinity in units of concentration, obtained from inhibition or displacement.

On to `O=S(=O)(O)c1cc(N=C=S)ccc1/C=C/c1ccc(N=C=S)cc1S(=O)(=O)O` [DIDS], for which the Ki was determined as 8.9 ± 1.2 µM.
